Assay results reported in patent publication US4596790A, “Peptides for the treatment of hyperglycaemia” (Nyegaard & Co. A/S, priority 1983, dated 1986).
Non-standard residues stand in square brackets, D forms with d. Residues, ends and D or L forms follow the SMILES beside them. No end group written: not given here. pGlu = O=C1CC[C@@H](C(=O)O)N1

Experiments:
pancreatic β-cells = experiment: insulin releasing activity (potentiation of the insulin releasing activity of glucose); details: qualitative ranking among the compounds prepared
[1] = reported in the literature; cited from earlier work

| Compound | activity (insulin releasing) (pancreatic β-cells) | hyperglycaemic and hyperinsulinaemic activity [1] |
| --- | --- | --- |
| O=C(O)CNC(=O)[C@H](CC(=O)O)NC(=O)[C@H](CC(=O)O)NC(=O)[C@@H]1CCC(=O)N1 [p-Glu-Asp-Asp-Gly, H-L-(PYRO) GLUTAMYL-L-ASPARTYL-L-ASPARTYL-GLYCINE] (HELM PEPTIDE1{[Glp].D.D.G}$$$$V2.0) | Especially active |  |
| NC(=O)CC[C@H](NC(=O)[C@@H]1CCC(=O)N1)C(=O)N[C@@H](CC(=O)O)C(=O)NCC(=O)O [p-Glu-Gln-Asp-Gly, H-L-(PYRO) GLUTAMYL-L-GLUTAMINYL-L-ASPARTYL-GLYCINE] (HELM PEPTIDE1{[Glp].Q.D.G}$$$$V2.0) | most active |  |
| [pGlu]SDG |  | hyperglycaemic and hyperinsulinaemic activity |
| O=C(O)CC[C@H](NC(=O)[C@@H]1CCC(=O)N1)C(=O)N[C@@H](CC(=O)O)C(=O)NCC(=O)O [p-Glu-Glu-Asp-Gly, H-L-(PYRO) GLUTAMYL-L-GLUTAMYL-L-ASPARTYL-GLYCINE] (HELM PEPTIDE1{[Glp].E.D.G}$$$$V2.0) | Especially active |  |
